Experimental data reported in patent publication US6034085A, “Salt form of nefazodone for use in extended release formulations” (Bristol-Myers Squibb Co., priority 1998, dated 2000).
“Also recorded” adds a separate entry of the source. Where a name gives a salt, the structure may show the parent alone. Read-outs that look alike come from different tables or passages of the source.

How the values were obtained:
[1] = Intrinsic dissolution of various nefazodone salts in water at 37° C.; format: physicochemical; conditions: for Intrinsic Dissolution Rate: n = 2; for Final pH: pH of the aqueous medium after dissolution had occurred
Protocol: Table 1 sets out intrinsic dissolution rates for various salts of nefazodone in water at 37° C. The final pH value is the pH of the aqueous medium after dissolution had occurred. […] Note, however, that the tosylate salt's dissolution rate is also slow even though the media is acidic in nature.
The intrinsic dissolution experiments were performed with 75 mL water as the dissolution medium. The details of these dissolution experiments are summarized below:
Container: Double-walled beaker, 100 mL capacity, round bottom.
Volume of sample withdrawn per interval: 1 mL.
Temperature of the solution in the beaker was maintained by means of a circulating waterbath. The medium was stirred with a USP II paddle using 100 rpm stirring rate (paddle depth=1 inch below the surface of the medium). Samples were withdrawn through a 0.45 μm syringe filter and were analyzed without any further dilution or treatment by HPLC (Method 1).

[2] = Aqueous solubility of nefazodone as a function of pH; format: physicochemical; conditions: gastrointestinal tract / pH range
[3] = Stability under pharmaceutical processing and storage; format: physicochemical; conditions: pharmaceutical processing/handling and storage; listed as mesylate salt
[4] = Drug release from tablets in simulated intestinal fluid pH 7.5 (FIG. 3); format: physicochemical; conditions: pH 7.5, 37° C.
Protocol: (§1) The curves are plotted as percent nefazodone released over time in hours.
(§2) Remaining dissolution experiments were made with the nefazodone salts formulated into tablets as described more fully infra. Essentially, the tablets were comprised of a nefazodone salt, hydroxypropylcellulose, lactose and magnesium stearate.
(§3) Release Profiles from the Tablet Formulation
(§4) The preparation and characterization of tablets of salts of nefazodone was performed as described below:
(§5) The nefazodone salt, hydroxypropyl cellulose EF and lactose were mixed for 10-15 minutes. Magnesium stearate was added to this mixture, mixing it for five more minutes. Tablets were compressed using a Manesty machine (Model-Manesty B3B). The tablet hardness was approximately 7 SCU.
(§6) Dissolution studies were performed with a USP II apparatus in simulated gastric fluid (USP, pH 1.2), simulated intestinal fluid (USP, pH 7.5) and 0.5 M THAM (pH 7.7). The details of conditions for the dissolution experiments are as follows:
(§7) […]: 900 mL.
(§8) Sample volume withdrawn at each interval: 0.7 mL.
(§9) Samples were filtered during withdrawal and chromatographed without further dilution or treatment. Samples were analyzed by Waters HPLC system. The HPLC conditions are listed in Method 2 below.

[5] = Drug release from tablets in simulated gastric fluid pH 1.2 (FIG. 2); format: physicochemical; conditions: pH 1.2, 37° C.
Protocol: as §1, §2, §3, §4, §5, §6, §7, §8, §9

[6] = Dissolution of powdered nefazodone salts in 0.125M THAM buffer (FIG. 1); format: physicochemical; conditions: powder, pH 7.5, 37° C.
Protocol: The curves are plotted as cumulative amounts of nefazodone versus time in minutes.
To assess solubility in non-acidic media, dissolution rates were determined for selected nefazodone salts in THAM buffer (0.125M, pH 7.5) made by dissolving tri(hydroxymethyl)aminomethane in water and adjusting the pH with conc. hydrochloride acid.
Intrinisic Dissolution Experiments in THAM
THAM buffer was prepared by dissolving tri(hydroxymethyl)aminomethane in water and adjusting the pH with concentrated hydrochloric acid. Dissolution of salts of nefazodone in powder form was studied in this medium.
The experiments were conducted in 0.125 M THAM (pH 7.7) at 37° C. using the USP II dissolution apparatus. Nefazodone […] in powder form (about 75-80 mg) were added to 900 mL dissolution medium stirred at 50 rpm and samples were withdrawn at time points up to 2 hours. The USP official method recommends paddles to be 1 inch from the bottom. In this experiment, paddles were 3/4 inch from the bottom. The paddle depth was altered to facilitate suspension of the powder during experiments. Samples were analyzed using HPLC assay.

[7] = Drug release from tablets in 0.5M THAM buffer (FIG. 4); format: physicochemical; conditions: 37° C.
Protocol: as §1, §2, §3, §4, §5
The details of conditions for the dissolution experiments are as follows:
as §7, §8, §9

[8] = extended release formulations, cited from earlier work
[9] = cited from earlier work
[10] = cited from earlier work; remark: listed apart in the source

| Structure (SMILES) | Intrinsic Dissolution Rate [1] [mg/min/cm 2] | Final pH [1] | solubility / dissolution rate in water [1] | further results |
| --- | --- | --- | --- | --- |
| CCc1nn(CCCN2CCN(c3cccc(Cl)c3)CC2)c(=O)n1CCOc1ccccc1 [L-Tartrate] | 0.97 | 3.8 | – | – |
| CCc1nn(CCCN2CCN(c3cccc(Cl)c3)CC2)c(=O)n1CCOc1ccccc1 [Tosylate] | 0.1 | 4.4 | slow | – |
| CCc1nn(CCCN2CCN(c3cccc(Cl)c3)CC2)c(=O)n1CCOc1ccccc1 [Nefazodone base] | 0.002 | 7.2 | Low solubilities | nefazodone release in the human intestinal tract ([8]; pH approaches neutrality): inhibited; pka ([9]; first of two pka values): about 6.4; pka ([9]; second of two pka values): ~9.5; aqueous solubility ([10]; pH values greater than 6): low aqueous solubility |
| CCc1nn(CCCN2CCN(c3cccc(Cl)c3)CC2)c(=O)n1CCOc1ccccc1 [Succinate] | 0.16 | 5.0 | Low solubilities | – |
| CCc1nn(CCCN2CCN(c3cccc(Cl)c3)CC2)c(=O)n1CCOc1ccccc1 [D-Malate] | 1.15 | 4.2 | – | – |
| CCc1nn(CCCN2CCN(c3cccc(Cl)c3)CC2)c(=O)n1CCOc1ccccc1 [Maleate] | 0.30 | 4.8 | – | – |
| CCc1nn(CCCN2CCN(c3cccc(Cl)c3)CC2)c(=O)n1CCOc1ccccc1 [DL-Malate] | 0.98 | 4.3 | – | – |
| CCc1nn(CCCN2CCN(c3cccc(Cl)c3)CC2)c(=O)n1CCOc1ccccc1 [Acetate] | 0.03 | 5.4 | Low solubilities | – |

Further lines, with some results ahead:

| Intrinsic Dissolution Rate [1] [mg/min/cm 2] | Final pH [1] | solubility / dissolution rate in water [1] | Structure (SMILES) | further results |
| --- | --- | --- | --- | --- |
| 1.2 | 3.7 | – | CCc1nn(CCCN2CCN(c3cccc(Cl)c3)CC2)c(=O)n1CCOc1ccccc1 [DL-Tartrate] | – |
| 2.7 | 4.0 | – | CCc1nn(CCCN2CCN(c3cccc(Cl)c3)CC2)c(=O)n1CCOc1ccccc1 [Mesylate] | solubility throughout the gastrointestinal tract [2]: exhibit solubility throughout the gastrointestinal tract; stability [3]: stable solid; also recorded: stable under conditions of pharmaceutical processing and storage; drug release from tablets [4]: best of class dissolution; drug release from tablets ([4]; listed as mesylate salt): performs better than the other salts; drug release from tablets [5]: good but not excessive dissolution; drug release from tablets ([5]; listed as mesylate salt): more modest release; concentration of drug dissolved compared to the hydrochloride salt [6]: in the higher grouping, the mesylate is not the best of those shown; drug release from tablets [7]: outperforms the others |
| 1.36 | 4.2 | – | CCc1nn(CCCN2CCN(c3cccc(Cl)c3)CC2)c(=O)n1CCOc1ccccc1 [L-Malate] | – |
| 1.13 | 3.7 | – | CCc1nn(CCCN2CCN(c3cccc(Cl)c3)CC2)c(=O)n1CCOc1ccccc1 [D-Tartrate] | – |
| 0.93 | 4.4 | – | CCc1nn(CCCN2CCN(c3cccc(Cl)c3)CC2)c(=O)n1CCOc1ccccc1 [Hydrochloride, reference compound] | bioavailability [8]: low observed bioavailability; drug release from tablets ([5]; listed as hydrochloride salt): good solubility; solubility in the intestinal tract ([10]; intestinal tract, pH ranges from about 5-7): low solubility |
